pKi: −log10 of the molar value.

The target in assay [1] is T1, Adrenergic receptor alpha-1 (Rattus norvegicus, UniProt P15823+P23944+P43140).
T1 sequence (P15823 whole entry): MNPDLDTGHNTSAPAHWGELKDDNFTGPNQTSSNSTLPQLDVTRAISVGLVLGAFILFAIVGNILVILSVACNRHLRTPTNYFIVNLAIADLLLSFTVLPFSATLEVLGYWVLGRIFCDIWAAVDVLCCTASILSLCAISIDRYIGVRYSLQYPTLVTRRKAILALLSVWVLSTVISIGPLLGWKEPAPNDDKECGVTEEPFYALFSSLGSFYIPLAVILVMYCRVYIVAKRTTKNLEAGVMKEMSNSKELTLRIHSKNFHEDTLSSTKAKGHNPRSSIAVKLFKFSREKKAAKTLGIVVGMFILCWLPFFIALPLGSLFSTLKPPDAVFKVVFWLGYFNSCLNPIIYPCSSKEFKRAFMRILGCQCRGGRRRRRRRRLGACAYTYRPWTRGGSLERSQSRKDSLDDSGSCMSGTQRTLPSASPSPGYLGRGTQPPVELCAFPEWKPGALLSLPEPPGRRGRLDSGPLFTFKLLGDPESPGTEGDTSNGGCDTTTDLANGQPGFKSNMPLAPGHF
T1 sequence (P23944 whole entry): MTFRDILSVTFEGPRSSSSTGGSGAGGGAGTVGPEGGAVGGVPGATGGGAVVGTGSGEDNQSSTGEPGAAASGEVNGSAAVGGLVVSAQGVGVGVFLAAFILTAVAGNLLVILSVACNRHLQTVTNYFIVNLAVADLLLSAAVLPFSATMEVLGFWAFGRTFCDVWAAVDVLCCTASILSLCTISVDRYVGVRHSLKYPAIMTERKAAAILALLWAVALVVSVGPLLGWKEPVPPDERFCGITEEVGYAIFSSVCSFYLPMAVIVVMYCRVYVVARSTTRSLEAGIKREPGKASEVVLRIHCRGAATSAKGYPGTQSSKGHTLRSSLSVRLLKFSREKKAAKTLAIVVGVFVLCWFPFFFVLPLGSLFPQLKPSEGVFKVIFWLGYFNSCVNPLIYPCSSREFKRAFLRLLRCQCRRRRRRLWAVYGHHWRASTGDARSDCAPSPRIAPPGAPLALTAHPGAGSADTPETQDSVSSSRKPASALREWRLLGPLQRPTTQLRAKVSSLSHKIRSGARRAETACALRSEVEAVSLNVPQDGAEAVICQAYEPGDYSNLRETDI
T1 sequence (P43140 whole entry): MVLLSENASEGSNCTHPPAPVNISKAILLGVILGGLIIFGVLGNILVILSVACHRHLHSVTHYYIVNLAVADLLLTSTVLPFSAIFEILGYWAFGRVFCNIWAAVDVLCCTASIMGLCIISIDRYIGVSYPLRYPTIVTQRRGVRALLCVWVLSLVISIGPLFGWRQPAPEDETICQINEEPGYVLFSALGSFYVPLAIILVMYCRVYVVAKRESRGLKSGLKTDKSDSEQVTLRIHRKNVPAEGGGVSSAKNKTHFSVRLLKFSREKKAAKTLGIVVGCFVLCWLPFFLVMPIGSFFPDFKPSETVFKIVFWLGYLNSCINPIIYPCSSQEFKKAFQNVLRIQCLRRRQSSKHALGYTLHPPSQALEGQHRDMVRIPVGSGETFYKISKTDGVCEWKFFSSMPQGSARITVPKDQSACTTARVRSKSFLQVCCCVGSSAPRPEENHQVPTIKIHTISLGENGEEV
As to the kind of experiment: Displacement of [3H]prazosin from alpha-1 adrenergic receptor of rat brain homogenate. On the technique in general: Loss of bound radioactivity is the signal in a displacement assay; it reports binding, not function.

Assay [2] has as its target T2, D(4) dopamine receptor (Homo sapiens, UniProt P21917).
T2 sequence (P21917 whole entry): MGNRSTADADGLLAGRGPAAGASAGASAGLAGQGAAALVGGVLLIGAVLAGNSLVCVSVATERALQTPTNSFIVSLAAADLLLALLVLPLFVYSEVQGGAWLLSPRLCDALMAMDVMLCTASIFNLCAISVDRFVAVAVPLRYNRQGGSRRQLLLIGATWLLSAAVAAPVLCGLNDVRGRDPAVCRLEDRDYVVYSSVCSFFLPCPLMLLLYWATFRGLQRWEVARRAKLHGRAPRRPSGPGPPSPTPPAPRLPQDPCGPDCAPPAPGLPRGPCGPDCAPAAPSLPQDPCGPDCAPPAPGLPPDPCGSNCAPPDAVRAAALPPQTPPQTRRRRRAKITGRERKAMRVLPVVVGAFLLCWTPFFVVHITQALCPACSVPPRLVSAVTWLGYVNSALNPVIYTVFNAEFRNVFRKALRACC
As to the kind of experiment: Displacement of [3H]-YM 09151 from D4 receptor.

The target in assay [3] is T3, D(2) dopamine receptor (Homo sapiens, UniProt P14416). As to the kind of experiment: Displacement of [3H]-YM 09151 from D2 receptor.
The target in assay [4] is T2, D(4) dopamine receptor. As to the kind of experiment: D4 receptor functional activity was measured inhibition of quinpirole stimulated [35S]GTP-gamma-S binding from cell membranes. For orientation: GTPγS is a poorly hydrolysed GTP analogue; its binding reports G protein activation.
Assay [5] deals with T3, D(2) dopamine receptor. The assay can be described thus: D2 receptor functional activity was measured through reversal of quinpirole inhibited, forskolin stimulated cAMP production from whole cells. Background: cAMP levels reflect the balance of adenylyl cyclase and phosphodiesterase activity.

T3 sequence (P14416 whole entry): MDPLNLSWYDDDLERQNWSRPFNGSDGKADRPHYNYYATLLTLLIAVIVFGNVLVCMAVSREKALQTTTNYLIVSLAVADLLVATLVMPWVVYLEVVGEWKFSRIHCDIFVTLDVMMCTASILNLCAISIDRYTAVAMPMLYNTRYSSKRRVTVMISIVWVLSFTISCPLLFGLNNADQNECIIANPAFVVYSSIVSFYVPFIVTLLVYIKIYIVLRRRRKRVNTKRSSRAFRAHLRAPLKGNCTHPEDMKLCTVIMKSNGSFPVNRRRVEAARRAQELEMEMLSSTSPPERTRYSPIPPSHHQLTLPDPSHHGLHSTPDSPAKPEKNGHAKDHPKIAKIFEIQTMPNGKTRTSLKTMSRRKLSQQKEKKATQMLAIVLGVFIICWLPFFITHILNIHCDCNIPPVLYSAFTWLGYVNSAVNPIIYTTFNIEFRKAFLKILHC

Regarding `CC1(C)Cc2cccc3c2N1C(=O)C(N1CCN(Cc2ccc(Cl)cc2)CC1)CC3` (configuration not stated), the inhibition constant Ki (usually the equilibrium dissociation constant of an inhibitor or competing ligand from its target) in assay [1] was found to be 1735 nM.
On to `CCN1C(=O)C(N2CCN(Cc3ccc(Cl)cc3)CC2)CCc2ccccc21` (configuration not stated), for which the Ki in assay [1] worked out at 2678 nM.
Consider `Cc1ccc(CN2CCN(C3CCc4cccc5c4N(C3=O)C(C)C5)CC2)cc1` (configuration not stated), for which the inhibitory constant (Ki) in assay [1] is reported as 1000 nM. In addition, the values for the pKi on D(4) dopamine receptor [2] and at D(2) dopamine receptor [3] were 8.00 and 7.59, respectively.
`O=C1C(N2CCN(Cc3ccc(Cl)cc3)CC2)CCc2cccc3c2N1CC3` (configuration not stated) returned a Ki in assay [1] of 2284 nM. In addition, the pKi (in general, −log10 of the Ki, conventionally taken in molar units) at D(4) dopamine receptor [4] is 8.52; on D(4) dopamine receptor [2], 8.30; on D(2) dopamine receptor [3] it was 6.94; on D(2) dopamine receptor [5] it was 7.21.
Consider `Cc1ccc(CN2CCN(C3CCc4cccc5c4N(CC5)C3=O)CC2)cc1` (configuration not stated), for which the inhibition constant (Ki) in assay [1] was found to be 1361 nM. In addition, on D(2) dopamine receptor [3], the pKi was 6.68.
As for `COc1ccc(C)cc1CN1CCN(C2CCc3cccc4c3N(C2=O)C(C)(C)C4)CC1` (configuration not stated), in assay [1], the Ki was found to be 983 nM. In addition, the pKi is 7.19 on D(4) dopamine receptor [2] and 6.50 at D(2) dopamine receptor [3].
On the same counts, the results for `COc1cc(C)ccc1CN1CCN(C2CCc3cccc4c3N(C2=O)C(C)(C)C4)CC1` (configuration not stated) are 653 nM, 7.47 and 6.02.
The matching figures for `Cc1ccc(CN2CCN(C3CCc4cccc5c4N(C3=O)C(C)(C)C5)CC2)cc1` (configuration not stated): 490 nM, 7.92 and 6.78.
Turning to `CCN1C(=O)C(N2CCN(Cc3ccc(Cl)cc3)CC2)Cc2ccccc21` (configuration not stated), the Ki in assay [1] is reported as 1265 nM.
Regarding `COc1ccc(Cl)cc1CN1CCN(C2CCc3cccc4c3N(C2=O)C(C)(C)C4)CC1` (configuration not stated), the inhibitory constant (Ki) in assay [1] is given as 1056 nM. Also, the figures for the pKi at D(4) dopamine receptor [2] and at D(2) dopamine receptor [3] were 7.54 and 6.66, respectively.
As for `CC1Cc2cccc3c2N1C(=O)C(N1CCN(Cc2ccc(Cl)cc2)CC1)CC3` (configuration not stated), the Ki in assay [1] is on record as 1000 nM. At D(2) dopamine receptor [3], this compound gave a pKi of 6.86.

The values above are taken from ChEMBL document CHEMBL1136593, “Design, synthesis, and discovery of 5-piperazinyl-1,2,6,7-tetrahydro-5H-azepino[3,2,1-hi]indol-4-one derivatives: a novel series of mixed dopamine D2/D4 receptor antagonist” (Bioorg Med Chem Lett, 2003).
